This note sets out measurements from ChEMBL document CHEMBL4028888, “Design of MC1R Selective γ-MSH Analogues with Canonical Amino Acids Leads to Potency and Pigmentation” (J Med Chem, 2017).

In data set [1] the target is T1, Melanocortin receptor 4 (Homo sapiens, UniProt P32245). The experiment in a line: Displacement of [125I]-NDP-alpha-MSH from human MC4R expressed in HEK293 cells at 10 uM after 40 mins by gamma counting method. The class given is cell-based.
Data set [2] has as its target T2, Melanocortin receptor 5 (Homo sapiens, UniProt P33032). Description: Agonist activity at human MC5R expressed in HEK293 cells assessed as induction of intracellular cAMP accumulation at 10 uM after 3 mins relative to MT-2. Format: cell-based. Particulars: 0.05 h, read-out: %max. A general note: Changes in cAMP serve as a functional read-out for many G protein-coupled receptors.

Data set [3] addresses T1, Melanocortin receptor 4. The experiment in a line: Agonist activity at human MC4R expressed in HEK293 cells assessed as induction of intracellular cAMP accumulation at 10 uM after 3 mins relative to MT-2. Particulars: 0.05 h, read-out: %max. The class given is cell-based.
For data set [4], the target named is Melanocyte-stimulating hormone receptor (Homo sapiens) (UniProt Q01726). Description: Agonist activity at human MC1R expressed in HEK293 cells assessed as induction of intracellular cAMP accumulation at 10 uM measured after 3 mins relative to MT-2. Format: functional, cell-based.
Chain of Melanocyte-stimulating hormone receptor (Homo sapiens) (Q01726 whole entry, looked up): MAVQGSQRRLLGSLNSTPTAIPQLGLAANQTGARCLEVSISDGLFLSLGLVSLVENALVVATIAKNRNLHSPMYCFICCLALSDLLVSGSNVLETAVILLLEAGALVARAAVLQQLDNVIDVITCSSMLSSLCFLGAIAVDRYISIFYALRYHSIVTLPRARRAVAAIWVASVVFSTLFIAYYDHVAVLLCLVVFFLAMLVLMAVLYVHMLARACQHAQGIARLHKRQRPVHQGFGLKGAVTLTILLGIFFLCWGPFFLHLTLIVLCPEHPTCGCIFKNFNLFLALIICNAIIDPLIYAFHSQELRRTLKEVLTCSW
For data set [5] the target is unchanged. The experiment in a line: Displacement of [125I]-NDP-alpha-MSH from human MC1R expressed in HEK293 cells at 10 uM after 40 mins by gamma counting method. The class given is cell-based. Background: Loss of bound radioactivity is the signal in a displacement assay; it reports binding, not function.
The test system of data set [6] is Anolis carolinensis. Description: Induction of pigmentation effect in lizard at 2 ug/g, ip at 24 hrs post dose. Format: functional, organism-based.
Data set [7] concerns the target T2, Melanocortin receptor 5. Description: Displacement of [125I]-NDP-alpha-MSH from human MC5R expressed in HEK293 cells at 10 uM after 40 mins by gamma counting method. The class given is cell-based.
Data set [8] deals with Anolis carolinensis. Description: Induction of pigmentation effect in lizard at 2 ug/g, ip at 1 min post dose. The class given is functional, organism-based.
In data set [9] the target is T3, Melanocortin receptor 3 (Homo sapiens, UniProt P41968). The experiment in a line: Agonist activity at human MC3R expressed in HEK293 cells assessed as induction of intracellular cAMP accumulation at 10 uM after 3 mins relative to MT-2. The class given is cell-based. Conditions: 0.05 h, read-out: %max.
T3 sequence (P41968 whole entry): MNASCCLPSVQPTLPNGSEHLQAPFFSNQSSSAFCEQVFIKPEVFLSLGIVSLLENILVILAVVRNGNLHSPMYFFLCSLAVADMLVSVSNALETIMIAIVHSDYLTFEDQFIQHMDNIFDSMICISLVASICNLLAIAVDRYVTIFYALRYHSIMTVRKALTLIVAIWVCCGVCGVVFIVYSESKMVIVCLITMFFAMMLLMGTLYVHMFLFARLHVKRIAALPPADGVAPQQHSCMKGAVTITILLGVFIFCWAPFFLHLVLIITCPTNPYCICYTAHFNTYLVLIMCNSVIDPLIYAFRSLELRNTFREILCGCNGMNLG
Data set [10] deals with Melanocyte-stimulating hormone receptor (Homo sapiens) (UniProt Q01726). Description: Displacement of [125I]-NDP-alpha-MSH from human MC1R expressed in HEK293 cells after 40 mins by gamma counting method. Format: cell-based.
The target of data set [11] is T3, Melanocortin receptor 3. Description: Displacement of [125I]-NDP-alpha-MSH from human MC3R expressed in HEK293 cells at 10 uM after 40 mins by gamma counting method. The class given is cell-based.
The target of data set [12] is T2, Melanocortin receptor 5. Description: Agonist activity at human MC5R expressed in HEK293 cells assessed as induction of intracellular cAMP accumulation after 3 mins. Format: cell-based. Particulars: hek293, 0.05 h.

The structures appear in SMILES notation. Calls of active or inactive are those of the source. The rule behind the calls is not given here. Where a SMILES comes first, the peptide text is derived from it.

T1 sequence (P32245 whole entry): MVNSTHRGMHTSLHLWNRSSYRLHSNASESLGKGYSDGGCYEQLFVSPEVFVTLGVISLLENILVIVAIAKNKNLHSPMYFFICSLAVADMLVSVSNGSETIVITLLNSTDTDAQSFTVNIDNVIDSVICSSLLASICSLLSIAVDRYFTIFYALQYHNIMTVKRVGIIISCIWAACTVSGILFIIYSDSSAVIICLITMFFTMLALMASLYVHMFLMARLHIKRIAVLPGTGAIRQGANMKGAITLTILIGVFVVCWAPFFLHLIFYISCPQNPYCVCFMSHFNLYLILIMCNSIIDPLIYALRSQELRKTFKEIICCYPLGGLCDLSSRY
T2 sequence (P33032 whole entry): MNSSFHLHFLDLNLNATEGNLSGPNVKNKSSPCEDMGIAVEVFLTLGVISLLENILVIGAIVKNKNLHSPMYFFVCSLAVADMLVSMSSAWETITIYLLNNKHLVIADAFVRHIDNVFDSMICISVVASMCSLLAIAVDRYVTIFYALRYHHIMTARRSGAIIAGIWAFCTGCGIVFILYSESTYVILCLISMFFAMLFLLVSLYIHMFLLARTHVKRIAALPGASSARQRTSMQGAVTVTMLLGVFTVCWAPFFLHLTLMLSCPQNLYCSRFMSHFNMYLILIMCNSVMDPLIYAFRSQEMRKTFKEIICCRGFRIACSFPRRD

For `CC(C)C[C@H](NC(=O)[C@@H](NC(=O)[C@@H](N)Cc1ccc(O)cc1)C(C)C)C(=O)NCC(=O)N[C@@H](Cc1cnc[nH]1)C(=O)N[C@@H](Cc1ccccc1)C(=O)N[C@@H](CCCNC(=N)N)C(=O)N[C@@H](Cc1c[nH]c2ccccc12)C(=O)N[C@@H](CC(=O)O)C(=O)N[C@@H](CCCNC(=N)N)C(=O)N[C@@H](Cc1ccccc1)C(=O)NCC(N)=O`, the inhibition at 10 µM at Melanocortin receptor 4 [1] worked out at 100%. Also, the Emax at 10 µM at Melanocortin receptor 5 [2] stood at 0%.

On to `CSCC[C@H](NC(=O)[C@@H](NC(=O)[C@@H](N)Cc1ccc(O)cc1)C(C)C)C(=O)NCC(=O)N[C@@H](Cc1cnc[nH]1)C(=O)N[C@@H](Cc1ccccc1)C(=O)N[C@@H](CCCNC(=N)N)C(=O)N[C@@H](Cc1c[nH]c2ccccc12)C(=O)N[C@@H](CC(=O)O)C(=O)N[C@@H](CCCNC(=N)N)C(=O)N[C@@H](Cc1ccccc1)C(=O)NCC(N)=O`, for which the Emax at 10 µM at Melanocortin receptor 4 [3] worked out at 76%. Besides, 10 µM produced 100% inhibition at Melanocortin receptor 4 [1].

In turn, `CCCC[C@H](NC(=O)[C@@H](NC(=O)[C@H](Cc1ccc(O)cc1)NC(C)=O)C(C)C)C(=O)NCC(=O)N[C@@H](Cc1cnc[nH]1)C(=O)N[C@H](Cc1ccccc1)C(=O)N[C@@H](CCCNC(=N)N)C(=O)N[C@@H](Cc1c[nH]c2ccccc12)C(=O)N[C@@H](CC(=O)O)C(=O)N[C@@H](CCCNC(=N)N)C(=O)N[C@@H](Cc1ccccc1)C(=O)NCC(N)=O` displayed an inhibition at 10 µM on Melanocortin receptor 4 [1] of 100%.

Consider `CSCC[C@H](NC(=O)[C@H](CO)NC(=O)[C@H](Cc1ccc(O)cc1)NC(=O)[C@H](CO)NC(C)=O)C(=O)N[C@@H](CCC(=O)O)CN[C@@H](Cc1cnc[nH]1)C(=O)N[C@@H](Cc1ccccc1)C(=O)N[C@@H](CCCNC(=N)N)C(=O)N[C@@H](Cc1c[nH]c2ccccc12)C(=O)NCC(=O)N[C@@H](CCCCN)C(=O)N1CCC[C@H]1C(=O)N[C@H](C(N)=O)C(C)C`, for which, in data set [4], the %max was 100%. The inhibition in data set [5] worked out at 100%.

`CC(C)C[C@H](NC(=O)[C@H](Cc1ccccc1)NC(=O)[C@H](Cc1cnc[nH]1)NC(=O)CNC(=O)[C@H](CC(C)C)NC(=O)[C@@H](NC(=O)[C@@H](N)Cc1ccc(O)cc1)C(C)C)C(=O)N[C@@H](Cc1ccccc1)C(=O)N[C@@H](CC(=O)O)C(=O)N[C@@H](CCCNC(=N)N)C(=O)N[C@@H](Cc1ccccc1)C(=O)NCC(N)=O` (H-YVLGHFLFDRFG-NH2): the result in the data set on Anolis carolinensis [6] was inactive. Besides, at 10 µM the inhibition at Melanocortin receptor 5 [7] was 0%. Further, the inhibition in [5] is 100%. The result in the data set on Anolis carolinensis [8] was Active.

As for `CC(C)C[C@H](NC(=O)[C@H](Cc1ccccc1)NC(=O)[C@H](Cc1cnc[nH]1)NC(=O)CNC(=O)[C@H](CC(C)C)NC(=O)[C@@H](NC(=O)[C@@H](N)Cc1ccc(O)cc1)C(C)C)C(=O)N[C@@H](Cc1c[nH]c2ccccc12)C(=O)N[C@@H](CC(=O)O)C(=O)N[C@@H](CCCNC(=N)N)C(=O)N[C@@H](Cc1ccccc1)C(=O)NCC(N)=O` (H-YVLGHFLWDRFG-NH2), the Emax at 10 µM at Melanocortin receptor 3 [9] was found to be 0%. At Melanocortin receptor 5 [7], this compound displayed an inhibition at 10 µM of 0%. In addition, in data set [5], the inhibition was found to be 100%.

As to `CC(C)C[C@H](NC(=O)[C@H](Cc1ccccc1)NC(=O)[C@@H]1CCCN1C(=O)CNC(=O)[C@H](CC(C)C)NC(=O)[C@@H](NC(=O)[C@@H](N)Cc1ccc(O)cc1)C(C)C)C(=O)N[C@@H](Cc1ccccc1)C(=O)N[C@@H](CC(=O)O)C(=O)N[C@@H](CCCNC(=N)N)C(=O)N[C@@H](Cc1ccccc1)C(=O)NCC(N)=O` (H-YVLGPFLFDRFG-NH2), the Emax at 10 µM on Melanocortin receptor 5 [2] stood at 0%.

Take `CC(C)C[C@H](NC(=O)[C@H](Cc1ccccc1)NC(=O)[C@@H]1CCCN1C(=O)CNC(=O)[C@H](CC(C)C)NC(=O)[C@@H](NC(=O)[C@@H](N)Cc1ccc(O)cc1)C(C)C)C(=O)N[C@@H](Cc1c[nH]c2ccccc12)C(=O)N[C@@H](CC(=O)O)C(=O)N[C@@H](CCCNC(=N)N)C(=O)N[C@@H](Cc1ccccc1)C(=O)NCC(N)=O` (H-YVLGPFLWDRFG-NH2): the Emax at 10 µM at Melanocortin receptor 4 [3] and at Melanocortin receptor 5 [2] was 0% in each case. Further, 10 µM produced 32% inhibition on Melanocortin receptor 5 [7].

`CC(C)C[C@H](NC(=O)[C@@H](NC(=O)[C@@H](N)Cc1ccc(O)cc1)C(C)C)C(=O)NCC(=O)N1CCC[C@H]1C(=O)N[C@@H](Cc1ccccc1)C(=O)N[C@@H](CCCNC(=N)N)C(=O)N[C@@H](Cc1ccccc1)C(=O)N[C@@H](CC(=O)O)C(=O)N[C@@H](CCCNC(=N)N)C(=O)N[C@@H](Cc1ccccc1)C(=O)NCC(N)=O` (H-YVLGPFRFDRFG-NH2): the Emax at 10 µM at Melanocortin receptor 3 [9] and on Melanocortin receptor 5 [2] was 0% throughout. The same compound yielded an inhibition at 10 µM at Melanocortin receptor 4 [1] of 0%. In [10], the inhibition is 0%.

Turning to `CC(C)C[C@H](NC(=O)[C@@H](NC(=O)[C@@H](N)Cc1ccc(O)cc1)C(C)C)C(=O)NCC(=O)N1CCC[C@H]1C(=O)N[C@@H](Cc1ccccc1)C(=O)N[C@@H](CCCNC(=N)N)C(=O)N[C@@H](Cc1c[nH]c2ccccc12)C(=O)N[C@@H](CC(=O)O)C(=O)N[C@@H](CCCNC(=N)N)C(=O)N[C@@H](Cc1ccccc1)C(=O)NCC(N)=O` (H-YVLGPFRWDRFG-NH2), at 10 µM the inhibition on Melanocortin receptor 3 [11] was 100%.

On to `CCCC[C@H](NC(=O)[C@@H](NC(=O)[C@@H](N)Cc1ccc(O)cc1)C(C)C)C(=O)NCC(=O)N[C@@H](Cc1c[nH]cn1)C(=O)N[C@H](Cc1ccc2ccccc2c1)C(=O)N[C@@H](CCCN=C(N)N)C(=O)NC(Cc1c[nH]c2ccccc12)C(=O)N[C@@H](CC(=O)O)C(=O)N[C@@H](CCCN=C(N)N)C(=O)N[C@@H](Cc1ccccc1)C(=O)NCC(N)=O` (stereo in doubt), for which the Emax at 10 µM at Melanocortin receptor 3 [9] and on Melanocortin receptor 5 [2] was 6% throughout. Further, the Activity at Melanocortin receptor 5 [12] was found to be 0%. The inhibition at 10 µM on Melanocortin receptor 3 [11], on Melanocortin receptor 4 [1] and at Melanocortin receptor 5 [7] was 100% throughout. Further, in data set [4], the %max worked out at 70%. For the same compound, the inhibition in [5] amounted to 100%.

For orientation: inhibition means the share of the control response that was lost under treatment. Low values mean a response near the control, high ones a response far below the control.
